The results in this text go back to ChEMBL document CHEMBL1137819, “New 9-thiocyanatopupukeanane sesquiterpenes from the nudibranch Phyllidia varicosa and its sponge-prey Axinyssa aculeata” (J Nat Prod, 2003).

Values joined by “and” are separate entries in the source; they are usually repeats but may differ in a detail not shown here. Equal entries are not always repeated. Active and inactive are the calls of the source. The rule behind the calls is not given here.

The subject of one data set is Artemia salina. Put plainly: Toxicity against Artemia salina assessed as mortality after 24 hrs. Type of data set: organism-based. To be noted: in vivo.
For another data set, the system named is Bacillus subtilis. Put plainly: Antimicrobial activity against Bacillus subtilis after 24 hrs. Type of data set: functional, organism-based.
The test system of a further data set is Candida albicans. Put plainly: Antimicrobial activity against Candida albicans after 24 hrs. Type of data set: functional, organism-based.

As for `CC(C)[C@@H]1C[C@]2(C)C[C@]3(C)C[C@H]1[C@H]2C[C@@H]3SC#N.CC(C)[C@@H]1C[C@]2(C)C[C@]3(C)C[C@H]1[C@H]2C[C@H]3SC#N`, in the data set with Artemia salina, the Activity was 90% and 35%; the LD50 was found to be 5 ppm. Besides, the outcome with Bacillus subtilis was inactive. In addition, the outcome in the data set with Candida albicans was Active.
